The text below walks through data of US20240083897A1, “GCN2 MODULATING COMPOUNDS AND USES THEREOF” (HiberCell, Inc., priority 2021, published 2024).

pIC50: −log10 of the molar value. Counter-ions that a name gives are not always drawn.

GCN2, sequence (Q9P2K8 whole entry): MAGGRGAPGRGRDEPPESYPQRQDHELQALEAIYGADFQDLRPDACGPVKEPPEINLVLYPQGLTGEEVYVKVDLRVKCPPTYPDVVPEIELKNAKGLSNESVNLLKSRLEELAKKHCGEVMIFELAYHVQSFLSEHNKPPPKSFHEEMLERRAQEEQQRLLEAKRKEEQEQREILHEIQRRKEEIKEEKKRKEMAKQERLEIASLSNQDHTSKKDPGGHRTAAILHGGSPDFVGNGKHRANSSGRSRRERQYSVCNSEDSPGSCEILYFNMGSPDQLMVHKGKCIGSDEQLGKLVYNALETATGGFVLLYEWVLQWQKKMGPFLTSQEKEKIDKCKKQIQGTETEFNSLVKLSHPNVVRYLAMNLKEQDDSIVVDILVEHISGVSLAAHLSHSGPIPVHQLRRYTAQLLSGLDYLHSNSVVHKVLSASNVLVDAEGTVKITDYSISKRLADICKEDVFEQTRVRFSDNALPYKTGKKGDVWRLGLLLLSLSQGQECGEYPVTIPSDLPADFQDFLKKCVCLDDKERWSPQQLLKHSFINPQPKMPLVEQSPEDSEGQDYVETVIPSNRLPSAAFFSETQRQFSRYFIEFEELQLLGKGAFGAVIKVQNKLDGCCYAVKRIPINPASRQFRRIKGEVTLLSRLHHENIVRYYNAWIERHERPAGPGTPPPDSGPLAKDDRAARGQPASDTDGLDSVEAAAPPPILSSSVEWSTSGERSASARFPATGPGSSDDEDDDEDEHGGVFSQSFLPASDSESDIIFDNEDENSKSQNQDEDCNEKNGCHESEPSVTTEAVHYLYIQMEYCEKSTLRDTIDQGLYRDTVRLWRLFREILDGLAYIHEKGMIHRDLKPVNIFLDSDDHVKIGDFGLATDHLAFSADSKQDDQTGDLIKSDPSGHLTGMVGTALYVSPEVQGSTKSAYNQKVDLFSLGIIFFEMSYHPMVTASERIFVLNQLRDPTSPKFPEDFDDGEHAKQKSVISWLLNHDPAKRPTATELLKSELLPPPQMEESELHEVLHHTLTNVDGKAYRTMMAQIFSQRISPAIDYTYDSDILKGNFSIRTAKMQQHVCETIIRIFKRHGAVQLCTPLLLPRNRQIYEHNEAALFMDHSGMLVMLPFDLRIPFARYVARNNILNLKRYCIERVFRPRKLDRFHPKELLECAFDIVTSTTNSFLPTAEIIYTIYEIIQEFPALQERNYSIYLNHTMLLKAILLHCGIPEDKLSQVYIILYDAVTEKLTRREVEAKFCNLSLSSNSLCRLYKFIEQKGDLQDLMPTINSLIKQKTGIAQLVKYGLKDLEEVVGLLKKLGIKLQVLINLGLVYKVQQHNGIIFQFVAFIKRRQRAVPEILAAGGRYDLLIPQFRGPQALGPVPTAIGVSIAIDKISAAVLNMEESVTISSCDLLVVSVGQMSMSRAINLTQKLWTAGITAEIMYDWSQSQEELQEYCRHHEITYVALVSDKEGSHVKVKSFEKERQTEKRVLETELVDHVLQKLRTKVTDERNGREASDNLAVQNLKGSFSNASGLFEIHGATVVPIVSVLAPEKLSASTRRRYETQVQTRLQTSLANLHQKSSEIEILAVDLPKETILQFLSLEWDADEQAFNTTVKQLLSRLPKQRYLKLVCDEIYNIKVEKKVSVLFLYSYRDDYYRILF

The first test addresses GCN2 (Homo sapiens (Human), UniProt Q9P2K8). In words: TR-FRET biochemical assay for inhibition of GCN2.
Conditions: not given
In general terms: Time-resolved FRET reads energy transfer from a long-lived donor to a nearby acceptor.
Take `CNC(=O)c1ncn2c1CC[C@H](c1c(F)ccc(NS(=O)(=O)c3cc(F)cnc3OC)c1Cl)C2` [Compound 152-1, (6R)-6-[2-chloro-6-fluoro-3-(5-fluoro-2-methoxypyridine-3-sulfonamido)phenyl]-N-methyl-5H,6H,7H,8H-imidazo[1,5-a]pyridine-1-carboxamide]: the pIC50 is 6.30 to 7.30.

`CNC(=O)c1ncn2c1CC[C@@H](c1c(F)ccc(NS(=O)(=O)c3cc(F)cnc3OC)c1Cl)C2` [Compound 152-2, (6S)-6-[2-chloro-6-fluoro-3-(5-fluoro-2-methoxypyridine-3-sulfonamido)phenyl]-N-methyl-5H,6H,7H,8H-imidazo[1,5-a]pyridine-1-carboxamide] had a pIC50 of 6.30 to 7.30.

Consider `CNC(=O)c1ncn2c1CO[C@@H](c1c(F)ccc(NS(=O)(=O)c3cc(Cl)cnc3OC)c1F)C2` [Compound 154-1, (6S)-6-[3-(5-chloro-2-methoxypyridine-3-sulfonamido)-2,6-difluorophenyl]-N-methyl-5H,6H,8H-imidazo[4,3-c][1,4]oxazine-1-carboxamide], for which the pIC50 is 6.30 to 7.30.

In turn, `CNC(=O)c1ncn2c1CO[C@H](c1c(F)ccc(NS(=O)(=O)c3cc(Cl)cnc3OC)c1F)C2` [Compound 154-2, (6R)-6-[3-(5-chloro-2-methoxypyridine-3-sulfonamido)-2,6-difluorophenyl]-N-methyl-5H,6H,8H-imidazo[4,3-c][1,4]oxazine-1-carboxamide hydrochloride] had a pIC50 of 6.30 to 7.30.

For the molecule `CCOc1ncc(Cl)cc1S(=O)(=O)Nc1ccc(F)c(-c2cn3cnc(C(=O)NC)c3cn2)c1F` [Compound 167, 6-[3-(5-chloro-2-ethoxypyridine-3-sulfonamido)-2,6-difluorophenyl]-N-methylimidazo[1,5-a]pyrazine-1-carboxamide], the pIC50 was 6.30 to 7.30.

As to `CNC(=O)c1ncn2cc(-c3c(F)ccc(NS(=O)(=O)c4cc(Cl)cnc4OC(C)C)c3F)ncc12` [Compound 168, 6-[3-(5-chloro-2-isopropoxypyridine-3-sulfonamido)-2,6-difluorophenyl]-N-methylimidazo[1,5-a]pyrazine-1-carboxamide], the pIC50 was 6.30 to 7.30.

`CNC(=O)c1ncn2cc(-c3c(F)ccc(NS(=O)(=O)c4cc(Cl)cnc4OC4CC4)c3F)ncc12` [Compound 169, 6-[3-(5-chloro-2-cyclopropoxypyridine-3-sulfonamido)-2,6-difluorophenyl]-N-methylimidazo[1,5-a]pyrazine-1-carboxamide] showed a pIC50 of 6.30 to 7.30.

In turn, `CNC(=O)c1ncn2c(F)c(-c3c(F)ccc(NS(=O)(=O)c4cc(F)cnc4OC)c3F)ncc12` [Compound 170, 6-[2,6-difluoro-3-(5-fluoro-2-methoxypyridine-3-sulfonamido)phenyl]-5-fluoro-N-methylimidazo[1,5-a]pyrazine-1-carboxamide] gave a pIC50 of 6.30 to 7.30.

Still in this test, the particulars now being: GCN2 2 nM, 100 nM GFP-eIF2a, 150 μM ATP, TR-FRET.
The molecule `Cc1ncc(F)cc1S(=O)(=O)Nc1ccc(F)c(-c2ccc3c(-c4nc(C)c(C)[nH]4)ncn3c2)c1F` [Compound 145, N-(3-(1-(4,5-dimethyl-1H-imidazol-2-yl)imidazo[1,5-a]pyridin-6-yl)-2,4-difluorophenyl)-5-fluoro-2-methylpyridine-3-sulfonamide] showed a negative-log IC50 (pIC50) of more than 7.30.

Take `Cc1ncc(Cl)cc1S(=O)(=O)Nc1ccc(F)c(-c2ccc3c(-c4nc(C)c(C)[nH]4)ncn3c2)c1F` [Compound 146, 5-chloro-N-(3-(1-(4,5-dimethyl-1H-imidazol-2-yl)imidazo[1,5-a]pyridin-6-yl)-2,4-difluorophenyl)-2-methylpyridine-3-sulfonamide]: the pIC50 was more than 7.30.

`COc1ncc(Cl)cc1S(=O)(=O)Nc1ccc(F)c(-c2ccc3c(-c4nc5c([nH]4)CCCC5)ncn3c2)c1F` [Compound 147, 5-chloro-N-(2,4-difluoro-3-(1-(4,5,6,7-tetrahydro-1H-benzo[d]imidazol-2-yl)imidazo[1,5-a]pyridin-6-yl)phenyl)-2-methoxypyridine-3-sulfonamide] gave a pIC50 of more than 7.30.

Consider `COc1ncc(F)cc1S(=O)(=O)Nc1ccc(F)c(-c2ccc3c(-c4nc5c([nH]4)CCCC5)ncn3c2)c1F` [Compound 148, N-(2,4-difluoro-3-(1-(4,5,6,7-tetrahydro-1H-benzo[d]imidazol-2-yl)imidazo[1,5-a]pyridin-6-yl)phenyl)-5-fluoro-2-methoxypyridine-3-sulfonamide], for which the pIC50 was more than 7.30.

`Cc1ncc(F)cc1S(=O)(=O)Nc1ccc(F)c(-c2ccc3c(-c4nc5c([nH]4)CCCC5)ncn3c2)c1F` [Compound 149, N-(2,4-difluoro-3-(1-(4,5,6,7-tetrahydro-1H-benzo[d]imidazol-2-yl)imidazo[1,5-a]pyridin-6-yl)phenyl)-5-fluoro-2-methylpyridine-3-sulfonamide]: the pIC50 is more than 7.30.

`Cc1ncc(Cl)cc1S(=O)(=O)Nc1ccc(F)c(-c2ccc3c(-c4nc5c([nH]4)CCCC5)ncn3c2)c1F` [Compound 150, 5-chloro-N-(2,4-difluoro-3-(1-(4,5,6,7-tetrahydro-1H-benzo[d]imidazol-2-yl)imidazo[1,5-a]pyridin-6-yl)phenyl)-2-methylpyridine-3-sulfonamide] showed a pIC50 of more than 7.30.

For the molecule `COc1ncc(F)cc1S(=O)(=O)Nc1ccc(F)c(-c2cn3cnc(-c4ncc[nH]4)c3cn2)c1Cl` [Compound 151, N-[2-chloro-4-fluoro-3-[1-(1H-imidazol-2-yl)imidazo[1,5-a]pyrazin-6-yl]phenyl]-5-fluoro-2-methoxypyridine-3-sulfonamide], the pIC50 is more than 7.30.

Molecule `COC(=O)c1ccc2nc(-c3ncn4cc(-c5c(F)ccc(NS(=O)(=O)c6cc(F)cnc6OC)c5F)ncc34)[nH]c2c1` [Compound 153, methyl 2-[6-[2,6-difluoro-3-(5-fluoro-2-methoxypyridine-3-sulfonamido)phenyl]imidazo[1,5-a]pyrazin-1-yl]-3H-1,3-benzodiazole-5-carboxylate] gave a pIC50 of more than 7.30.

In turn, `COc1ncc(F)cc1S(=O)(=O)Nc1ccc(F)c(-c2cn3cnc(-c4nc(-c5ccccc5)c[nH]4)c3cn2)c1F` [Compound 156, N-[2,4-difluoro-3-[1-(4-phenyl-1H-imidazol-2-yl)imidazo[1,5-a]pyrazin-6-yl]phenyl]-5-fluoro-2-methoxypyridine-3-sulfonamide] gave a pIC50 of more than 7.30.

Turning to `COc1ncc(Cl)cc1S(=O)(=O)Nc1ccc(F)c(-c2cn3cnc(C(=O)NC(C)C)c3cn2)c1F` [Compound 157, 6-[3-(5-chloro-2-methoxypyridine-3-sulfonamido)-2,6-difluorophenyl]-N-isopropylimidazo[1,5-a]pyrazine-1-carboxamide], the negative logarithm of the IC50 (pIC50) is more than 7.30.

With `COc1ncc(Cl)cc1S(=O)(=O)Nc1ccc(F)c(-c2cn3cnc(C(=O)NCC(C)C)c3cn2)c1F` [Compound 158, 6-[3-(5-chloro-2-methoxypyridine-3-sulfonamido)-2,6-difluorophenyl]-N-(2-methylpropyl)imidazo[1,5-a]pyrazine-1-carboxamide], the pIC50 is more than 7.30.

As for `COc1ncc(Cl)cc1S(=O)(=O)Nc1ccc(F)c(-c2cn3cnc(C(=O)NCC(F)(F)F)c3cn2)c1F` [Compound 159, 6-[3-(5-chloro-2-methoxypyridine-3-sulfonamido)-2,6-difluorophenyl]-N-(2,2,2-trifluoroethyl)imidazo[1,5-a]pyrazine-1-carboxamide], the pIC50 is more than 7.30.

On to `CNC(=O)c1ncn2c(F)c(-c3c(F)ccc(NS(=O)(=O)c4cc(Cl)cnc4OC)c3F)ncc12` [Compound 160, 6-[3-(5-chloro-2-methoxypyridine-3-sulfonamido)-2,6-difluorophenyl]-5-fluoro-N-methylimidazo[1,5-a]pyrazine-1-carboxamide], for which the pIC50 was more than 7.30.

For the molecule `COc1ncc(Cl)cc1S(=O)(=O)Nc1ccc(F)c(-c2cn3cnc(C(=O)NCCO)c3cn2)c1F` [Compound 161, 6-[3-(5-chloro-2-methoxypyridine-3-sulfonamido)-2,6-difluorophenyl]-N-(2-hydroxyethyl)imidazo[1,5-a]pyrazine-1-carboxamide], the pIC50 was more than 7.30.

In the case of `COc1ncc(Cl)cc1S(=O)(=O)Nc1ccc(F)c(-c2cn3cnc(C(=O)Nc4cnn(C)c4)c3cn2)c1F` [Compound 162, 6-[3-(5-chloro-2-methoxypyridine-3-sulfonamido)-2,6-difluorophenyl]-N-(1-methylpyrazol-4-yl)imidazo[1,5-a]pyrazine-1-carboxamide], the pIC50 is more than 7.30.

In turn, `COc1ncc(Cl)cc1S(=O)(=O)Nc1ccc(F)c(-c2cn3cnc(C(=O)NCC4CCOCC4)c3cn2)c1F` [Compound 163, 6-[3-(5-chloro-2-methoxypyridine-3-sulfonamido)-2,6-difluorophenyl]-N-(oxan-4-ylmethyl)imidazo[1,5-a]pyrazine-1-carboxamide] had a pIC50 of more than 7.30.

As for `COc1ncc(Cl)cc1S(=O)(=O)Nc1ccc(F)c(-c2cn3cnc(C(=O)NCCS(C)(=O)=O)c3cn2)c1F` [Compound 164, 6-[3-(5-chloro-2-methoxypyridine-3-sulfonamido)-2,6-difluorophenyl]-N-(2-methanesulfonylethyl)imidazo[1,5-a]pyrazine-1-carboxamide], the pIC50 was more than 7.30.

Regarding `CCNC(=O)c1ncn2cc(-c3c(F)ccc(NS(=O)(=O)c4cc(Cl)cnc4OC)c3F)ncc12` [Compound 165, 6-[3-(5-chloro-2-methoxypyridine-3-sulfonamido)-2,6-difluorophenyl]-N-ethylimidazo[1,5-a]pyrazine-1-carboxamide], the pIC50 was more than 7.30.

Molecule `COc1ncc(Cl)cc1S(=O)(=O)Nc1ccc(F)c(-c2cn3cnc(C(=O)NCC4CC4)c3cn2)c1F` [Compound 166, 6-[3-(5-chloro-2-methoxypyridine-3-sulfonamido)-2,6-difluorophenyl]-N-(cyclopropylmethyl)imidazo[1,5-a]pyrazine-1-carboxamide] had a pIC50 of more than 7.30.

`COc1ncc(Cl)cc1S(=O)(=O)Nc1ccc(F)c(-c2cn3cnc(C(N)=O)c3cn2)c1F` [Compound 171, 6-[3-(5-chloro-2-methoxypyridine-3-sulfonamido)-2,6-difluorophenyl]imidazo[1,5-a]pyrazine-1-carboxamide] gave a pIC50 of more than 7.30.

Usually pIC50 stands for the IC50 on a negative log10 scale, so that one unit is a factor of ten. The low end stands for a large IC50, the high end for a small IC50.
